Laboratory results: patent publication US20240209028A1, “CNP COMPOUNDS” (priority 2022, published 2024)
Starred links: 1 amine or outer side, 2 acyl side, 3 side chain; linkers in the order of their positions; H or OH if unused. Positions of bridges follow the written chain, without caps; N, C: chain ends. Residues, ends and D or L forms follow the SMILES beside them. *: point of attachment. C18 diacid = O=C(O)CCCCCCCCCCCCCCCCC(=O)*; γGlu = O=C(O)[C@H](CCC(=O)[*:2])N[*:1]; AEEA = NCCOCCOCC(=O)O

What was measured:
[1] = CNP local tolerance study in LYD pigs (s.c. injection, histopathology); assay type: in vivo, domestic LYD pig; conditions: LYD pig, s.c., approx. 4400 μM, 4 or 5 days after injection
Summary of the method: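 Domestic pigs dosed s.c. mid-back, 100 or 200 μl at approx. 4400 μM, in phosphate pH 6.5 or acetate pH 4.0 buffers with glycerol or propylene glycol; saline as negative control. Sites excised 4 or 5 days post injection, H&E sections graded on 5-level scale; necrosis used as marker.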

neprilysin (NEP) = neprilysin (NEP) (Homo sapiens, UniProt P08473); test: In vitro neprilysin stability; conditions: recombinant human neprilysin (rhNEP), pH 7.4
Chain of neprilysin (NEP) (P08473 whole entry): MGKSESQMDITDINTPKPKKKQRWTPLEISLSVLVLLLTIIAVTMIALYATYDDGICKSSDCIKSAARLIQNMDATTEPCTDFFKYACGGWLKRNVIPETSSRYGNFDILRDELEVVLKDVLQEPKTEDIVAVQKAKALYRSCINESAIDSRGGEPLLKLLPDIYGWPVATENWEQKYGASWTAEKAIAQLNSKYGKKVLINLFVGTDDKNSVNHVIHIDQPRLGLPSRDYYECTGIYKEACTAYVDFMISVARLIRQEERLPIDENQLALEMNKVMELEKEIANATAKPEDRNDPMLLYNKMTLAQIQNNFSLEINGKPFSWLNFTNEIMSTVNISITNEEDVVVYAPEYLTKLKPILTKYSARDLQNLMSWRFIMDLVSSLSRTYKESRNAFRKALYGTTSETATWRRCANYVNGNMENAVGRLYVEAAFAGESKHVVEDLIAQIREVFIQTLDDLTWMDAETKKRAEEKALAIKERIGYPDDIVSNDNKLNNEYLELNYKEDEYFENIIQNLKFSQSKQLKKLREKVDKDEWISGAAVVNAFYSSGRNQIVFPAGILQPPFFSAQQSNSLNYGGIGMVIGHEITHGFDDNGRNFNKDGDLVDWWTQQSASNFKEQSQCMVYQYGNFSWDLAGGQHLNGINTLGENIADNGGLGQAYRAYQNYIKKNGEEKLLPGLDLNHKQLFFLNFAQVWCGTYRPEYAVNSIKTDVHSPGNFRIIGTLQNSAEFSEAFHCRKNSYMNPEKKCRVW
Protocol: Therefore, an in vitro neprilysin stability assay was set up to test the neprilysin mediated degradation of selected CNP compounds.
Procedure: In short, the assay buffer consisted of PBS-buffer (pH 7.4, ThermoFisher Scientific) with a final concentration of 0.005% v/v tween 20 (Sigma-Aldrich). Recombinant human neprilysin (rhNEP; R&D Systems) and the CNP compounds were dissolved in assay buffer. Native CNP22 (0065, Chem. 1) was included as positive control on each day of incubation. Initially, the CNP compound (the final concentration was 1000 nM) was pre-incubated in assay buffer for 10 min at 37° C. The assay was started by adding either rhNEP (final concentration was 2 μg protein per mL) or assay buffer (adsorption experiment) and the incubation was conducted at 37° C. […] The mixture was centrifuged at 13000 rpm at 4° C. for 20 minutes. After centrifugation, one volume of supernatant was mixed with one volume of Milli-Q water.
Analysis by LCMS: The mixture was analysed by LCMS using an Acquity UPLC Peptide CSH C18 analytical column from Waters (130 Å, 1.7 μm, 1*50 mm) operated at 60° C. A gradient elution was conducted with a Nexera UHPLC system (Shimadzu) using mobile phase A (consisting of Milli-Q water with 0.1% formic acid) and mobile phase B (consisting of acetonitrile with 0.1% formic acid). The flow was 0.3 ml/min. A zenoTOF 7600 mass spectrometer (Sciex) was used as detector and operated in positive electrospray ionisation mode. Data was recorded in full scan mode (m/z 300-1700).
Calibration curves were prepared in assay buffer and treated as study samples. These samples were used for calculating the concentration of the relevant CNP compound in the in vitro samples. Quality control samples were included. For at least 75% of the standards and QCs, the deviation between nominal and calculated concentration was below 20%.
All incubations were conducted in duplicate. Data was reported as percent remaining at 90 min (based on calculated concentrations) compared to the average concentration in the 0.5-minute time point samples.

[2] = Local tolerance of CNP compounds in rats (s.c. injection, histopathology); assay type: in vivo, Sprague Dawley rat; conditions: rat, s.c. 350 μl, about 1000 nmol/ml, 5 days post injection
Summary of the method: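 Male Sprague Dawley rats (10-11 weeks) received two s.c. injections of 250 or 350 uL compound (1000 nmol/mL formulation) in neck or flank, 120 h before necropsy; vehicle 5 mM sodium acetate/250 mM glycerol pH 4.0 or 8 mM sodium phosphate/250 mM glycerol pH 7.4. Injection sites were scored macroscopically, H&E-stained and graded on a 5-level scale (Min to Sev).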

SMILES	Number of injections by severity of necrosis: NAD [1]	remaining at 1.5 h, 1000 nM (neprilysin (NEP)) [%]	Number of injections by severity of necrosis: Mild [1]	Number of injections by severity of necrosis: Min. [1]	Number of injections by severity of necrosis: NAD (No Abnormalities Detected) [2]
CC[C@H](C)[C@@H]1NC(=O)[C@H](CCCNC(=N)N)NC(=O)[C@H](CC(=O)O)NC(=O)[C@H](CC(C)C)NC(=O)[C@@H]2CCCN2C(=O)[C@H](CC(C)C)NC(=O)CNC(=O)[C@H](Cc2ccccc2)NC(=O)[C@@H](NC(=O)CNC(=O)[C@H](CCC(N)=O)NC(=O)[C@H](CO)NC(=O)[C@H](CC(C)C)NC(=O)CNC(=O)[C@H](CCCCN)NC(=O)[C@H](CCCCN)NC(=O)[C@H](CCC(N)=O)NC(=O)[C@H](C)NC(=O)CNC(=O)[C@H](CCCCN)NC(=O)[C@H](Cc2ccc(O)cc2)NC(=O)COCCOCCNC(=O)COCCOCCNC(=O)COCCOCCNC(=O)COCCOCCNC(=O)CC[C@H](NC(=O)CC[C@H](NC(=O)CC[C@H](NC(=O)CCCCCCCCCCCCCCCCC(=O)O)C(=O)O)C(=O)O)C(=O)O)CSSC[C@@H](C(=O)O)NC(=O)CNC(=O)[C@H](CC(C)C)NC(=O)CNC(=O)[C@H](CO)NC(=O)[C@H](CC(C)C)NC(=O)[C@H](CO)NC(=O)CNC1=O [Compound 9480] ({C18 diacid-γGlu-γGlu-γGlu-AEEA-AEEA-AEEA-AEEA}-YKGAQKKGLSQGCFGLPLDRIGSLSGLGC-OH; disulfide 13-29)	4	98.3	–	–	–
CC[C@H](C)[C@@H]1NC(=O)[C@H](CCCNC(=N)N)NC(=O)[C@H](CC(=O)O)NC(=O)[C@H](CC(C)C)NC(=O)[C@@H]2CCCN2C(=O)[C@H](CC(C)C)NC(=O)CNC(=O)[C@H](Cc2ccccc2)NC(=O)[C@@H](NC(=O)CNC(=O)[C@H](CCC(N)=O)NC(=O)[C@H](CO)NC(=O)CNC(=O)CNC(=O)[C@H](CCCCN)NC(=O)[C@H](CCCCN)NC(=O)[C@H](CCC(N)=O)NC(=O)[C@H](C)NC(=O)CNC(=O)[C@H](CCCCN)NC(=O)[C@H](Cc2ccc(O)cc2)NC(=O)COCCOCCNC(=O)COCCOCCNC(=O)COCCOCCNC(=O)COCCOCCNC(=O)CC[C@H](NC(=O)CC[C@H](NC(=O)CCCCCCCCCCCCCCCCC(=O)O)C(=O)O)C(=O)O)CSSC[C@@H](C(=O)O)NC(=O)CNC(=O)[C@H](CC(C)C)NC(=O)CNC(=O)[C@H](CO)NC(=O)[C@H](CC(C)C)NC(=O)[C@H](CO)NC(=O)CNC1=O [Compound 9435] ({C18 diacid-γGlu-γGlu-AEEA-AEEA-AEEA-AEEA}-YKGAQKKGGSQGCFGLPLDRIGSLSGLGC-OH; disulfide 13-29)	–	93.2	1	3	–
CC[C@H](C)[C@@H]1NC(=O)[C@H](CCCNC(=N)N)NC(=O)[C@H](CC(=O)O)NC(=O)[C@H](CC(C)C)NC(=O)[C@@H]2CCCN2C(=O)[C@H](CC(C)C)NC(=O)CNC(=O)[C@H](Cc2ccccc2)NC(=O)[C@@H](NC(=O)CNC(=O)[C@H](CO)NC(=O)[C@H](CO)NC(=O)[C@H](CC(C)C)NC(=O)CNC(=O)[C@H](CCCCN)NC(=O)[C@H](CCCCN)NC(=O)[C@H](CCC(N)=O)NC(=O)[C@H](C)NC(=O)CNC(=O)[C@H](CCCCN)NC(=O)[C@H](Cc2ccc(O)cc2)NC(=O)[C@H](CCCCN)NC(=O)[C@H](CCCNC(=N)N)NC(=O)[C@H](C)NC(=O)[C@H](CCC(N)=O)NC(=O)[C@@H]2CCCN2C(=O)[C@H](Cc2c[nH]cn2)NC(=O)[C@H](CCC(=O)O)NC(=O)[C@H](CCC(N)=O)NC(=O)CC[C@H](NC(=O)CC[C@H](NC(=O)CC[C@H](NC(=O)CC[C@H](NC(=O)CC[C@H](NC(=O)CCCCCCCCCCCCCCCCC(=O)O)C(=O)O)C(=O)O)C(=O)O)C(=O)O)C(=O)O)CSSC[C@@H](C(=O)O)NC(=O)CNC(=O)[C@H](CC(C)C)NC(=O)CNC(=O)[C@H](CO)NC(=O)[C@H](CC(C)C)NC(=O)[C@H](CO)NC(=O)CNC1=O [Compound 9482] ({C18 diacid-γGlu-γGlu-γGlu-γGlu-γGlu}-QEHPQARKYKGAQKKGLSSGCFGLPLDRIGSLSGLGC-OH; disulfide 21-37)	4	96.3	–	–	–
CC[C@H](C)[C@@H]1NC(=O)[C@H](CCCNC(=N)N)NC(=O)[C@H](CC(=O)O)NC(=O)[C@H](CC(C)C)NC(=O)[C@@H]2CCCN2C(=O)[C@H](CC(C)C)NC(=O)CNC(=O)[C@H](Cc2ccccc2)NC(=O)[C@@H](NC(=O)CNC(=O)[C@H](CCC(N)=O)NC(=O)[C@H](CO)NC(=O)[C@H](CC(C)C)NC(=O)CNC(=O)[C@H](CCCCN)NC(=O)[C@H](CCCCN)NC(=O)[C@H](CCC(N)=O)NC(=O)[C@H](C)NC(=O)CNC(=O)[C@H](CCCCN)NC(=O)[C@H](Cc2ccc(O)cc2)NC(=O)[C@H](CCCCN)NC(=O)[C@H](CCCNC(=N)N)NC(=O)[C@H](C)NC(=O)COCCOCCNC(=O)COCCOCCNC(=O)COCCOCCNC(=O)COCCOCCNC(=O)CC[C@H](NC(=O)CC[C@H](NC(=O)CC[C@H](NC(=O)CC[C@H](NC(=O)CC[C@H](NC(=O)CCCCCCCCCCCCCCCCC(=O)O)C(=O)O)C(=O)O)C(=O)O)C(=O)O)C(=O)O)CSSC[C@@H](C(=O)O)NC(=O)CNC(=O)[C@H](CC(C)C)NC(=O)CNC(=O)[C@H](CO)NC(=O)[C@H](CC(C)C)NC(=O)[C@H](CO)NC(=O)CNC1=O [Compound 9407] ({C18 diacid-γGlu-γGlu-γGlu-γGlu-γGlu-AEEA-AEEA-AEEA-AEEA}-ARKYKGAQKKGLSQGCFGLPLDRIGSLSGLGC-OH; disulfide 16-32)	3	96.6	–	1	4
